Results as given in patent US5521155A, “Amides of teicoplanin compounds” (Gruppo Lepetit S.p.A, priority 1985, dated 1996).
Values after ≈ are worked out from the molar mass of the structure shown.

Columns and labels:
[1] = Isoelectric point (pI) by isoelectrofocusing with bioautography detection; type: physicochemical; details: IEF technique, polyacrylamide gel
Text: The isoelectrofocusing (IEF) technique coupled with bioautography detection has been used for the determination of the pI of representative compounds of the invention using the following materials: AMPHOLINE carrier ampholytes (40% w/v) were purchased from LKB Produketer AB, Bromma, Sweden. Acrylamide, N,N'-methylenbisacrylamide (BIS), N,N,N',N'-tetramethylethylenediamine (TEMED) and ammonium persulfate were from Bio Rad Laboratorie, Richmond, Calif., USA. Glycerol and Antibiotic agar N. 1 (Grove and Randall medium N. 1) were from E. Merck Darmstadt FRG. GEL FIX polyester sheets were purchased from Serva Feinbiochemica Heidelberg. Phenolindo (2,6-dichlorophenol) came from BDH Chemicals Ltd. Poole, England.
IEF was made on gel slab using a LKB MULITPHOR 2117 cell and a Bio-Rad Power Supply Model 1420A. Slabs of 24.5×11.5 cm and 1 mm thickness were prepared on a sheet of GEL FIX. Polyacrylamide gels with a concentration of 8% T and with a cross-linkage of 4% C (30% T stock solution was prepared by dissolving 28.8 g of acrylamide and 1.2 g of bis-acrylamide in 100 ml distilled water), glycerol, 3.5% v/v, 2% AMPHOLINE, 0.05% ammonium persulphate as catalyst and 0.05% TEMED as accelerator. The carrier ampholite composition for 35 ml gelling solution was as follows:
The electrode solutions, as recommended by LKB for the respective pH range, were:
The gel was cooled to 4° C. with the aid of a LKB 2209 refrigerated constant temperature circulator. After prefocusing for 30 min. at 5 W, the samples (20 μl containing 0.2 to 2.5 μg of antibiotic) were loaded into the slot at the cathodic side. Electrofocusing was performed using 10 W constant power and was completed after 3-31/2 hours with a final potential of 1400 V.
The pH values were determined by dividing a portion of the gel into 1 cm sections, and eluting the individual pieces at room temperature with 1 ml of 10 mM KCl prior to pH readings.
The isoelectric point of each antibiotic was determined by interpolation on a curve obtained by plotting pH values versus the distance from the anode.
Polyacrylamide gel was placed on a 3 mm layer of agar medium N. 1 inoculated with 1% of Bacillus subtilis ATCC 6633 spore (0.5 OD at 600 nm). After 10 min the gel was removed and the plate was incubated overnight at 37° C. and examined for inhibition zones. The contrast between the area of lysis and that of bacterial growth was enhanced by use of Phenolindo(2,6-dichlorophenol) 1% w/v (oxidation-reduction indicator).

S. pyogenes C 203 = assay: In vitro antibacterial activity, standard agar-dilution test (MIC); type: cell-based; details: inoculum about 10^4 CFU/ml, 18-24 h at 37° C.
Experimental: (§1) The culture medium ISOSENSITEST BROTH (Oxoid) and the colture medium TODD-[…] BROTH (Difco) are used for growing staphylococci and streptococci, respectively. Broth cultures are diluted so that the final inoculum is about 10^4 colony forming units/ml (CFU/ml).

S. aureus ATCC 6538 = assay: as above; type: cell-based; details: inoculum about 10^4 CFU/ml, 18-24 h at 37° C.
Experimental: as §1

[2] = system: Proteus vulgaris X 19H ATCC 881; assay: as above; type: cell-based; details: inoculum about 10^4 CFU/ml, 18-24 h at 37° C.
Experimental: as §1

[3] = system: Pseudomonas aeruginosa ATCC 10145; assay: as above; type: cell-based; details: inoculum about 10^4 CFU/ml, 18-24 h at 37° C.
Experimental: as §1

S. aureus Tour = assay: as above; type: cell-based; details: inoculum about 10^4 CFU/ml, 18-24 h at 37° C.
Experimental: as §1

S. faecalis ATCC 7080 = assay: as above; type: cell-based; details: inoculum about 10^4 CFU/ml, 18-24 h at 37° C.
Experimental: as §1

[4] = system: S. epidermidis ATCC 12228; assay: as above; type: cell-based; details: inoculum about 10^4 CFU/ml, 18-24 h at 37° C.
Experimental: as §1

E. coli SKF 12140 = assay: as above; type: cell-based; details: inoculum about 10^4 CFU/ml, 18-24 h at 37° C.
Experimental: as §1

S. pneumoniae UC 41 = assay: as above; type: cell-based; details: inoculum about 10^4 CFU/ml, 18-24 h at 37° C.
Experimental: as §1

S. pyogenes L 49 = assay: In vivo test in mice experimentally infected with S. pyogenes L 49 (ED50); details: mice infected with S. pyogenes L 49; for ED50, route of administration os.: oral
Acid-base titration (pK) = type: physicochemical; details: acid-base titration in METHYLCELLOSOLVE/H2O 4:1 (v/v), 0.01N KOH; salt form per Table IV
Experimental: The following table (Table IV) reports the acid-base titration data of some representative compounds of the invention. The assays were carried out in METHYLCELLOSOLVE/H2 O, 4:1(v/v). A sample is dissolved in METHYLCELLOSOLVE/H2 O, 4:1(v/v) (10 umole in about 20 ml) and then 0.01N HCl (2 ml) is added and the mixture is titrated with 0.01N KOH in the same solvent mixture.

| Structure (SMILES) | Isoelectric point (pI) [1] | MIC S. pyogenes C 203 (S. pyogenes C 203) [µg/mL] | MIC S. aureus ATCC 6538 (S. aureus ATCC 6538) [µg/mL] | MIC Proteus vulgaris X 19H ATCC 881 [2] [µg/mL] | MIC Pseudomonas aeruginosa ATCC 10145 [3] [µg/mL] | MIC S. aureus Tour (S. aureus Tour) [µg/mL] | MIC S. faecalis ATCC 7080 (S. faecalis ATCC 7080) [µg/mL] | MIC S. epidermidis ATCC 12228 [4] [µg/mL] | MIC E. coli SKF 12140 (E. coli SKF 12140) [µg/mL] | MIC S. pneumoniae UC 41 (S. pneumoniae UC 41) [µg/mL] | ED50, route of administration os. (S. pyogenes L 49) [mg/kg] | ED50, route of administration s.c (S. pyogenes L 49) [mg/kg] | pK1 (Acid-base titration (pK)) | pK2 (Acid-base titration (pK)) |
| --- | --- | --- | --- | --- | --- | --- | --- | --- | --- | --- | --- | --- | --- | --- |
| CC(=O)NC1C(OC2c3ccc(c(Cl)c3)Oc3cc4cc(c3O)Oc3ccc(cc3Cl)CC3NC(=O)C(N)c5ccc(O)c(c5)Oc5cc(O)cc(c5)C(NC3=O)C(=O)NC4C(=O)NC3C(=O)NC2C(=O)NC(C(=O)NCCCN(C)C)c2cc(O)cc(O)c2-c2cc3ccc2O)OC(CO)C(O)C1O (stereo not shown) [Compound 13] | 8.9 | 0.12 (≈ 0.0807 µM) | 0.12 (≈ 0.0807 µM) | > 128 | > 128 | 0.12 (≈ 0.0807 µM) | 0.25 (≈ 0.168 µM) | 0.06 (≈ 0.0404 µM) | 64 (≈ 43.1 µM) | 0.25 (≈ 0.168 µM) | > 300 | 2.2 | – | – |
| CN(C)CCCNC(=O)C1NC(=O)C2NC(=O)C(NC(=O)C3NC(=O)C4NC(=O)C(Cc5ccc(c(Cl)c5)Oc5cc3cc(c5O)Oc3ccc(cc3Cl)C2O)NC(=O)C(N)c2ccc(O)c(c2)Oc2cc(O)cc4c2)c2ccc(O)c(c2)-c2c(O)cc(O)cc21 (stereo not shown) [Compound 18] | 8.9 | 0.06 (≈ 0.0468 µM) | 0.06 (≈ 0.0468 µM) | 16 (≈ 12.5 µM) | 32 (≈ 24.9 µM) | 0.12 (≈ 0.0935 µM) | 0.12 (≈ 0.0935 µM) | 0.016 (≈ 0.0125 µM) | 8 (≈ 6.23 µM) | 0.12 (≈ 0.0935 µM) | 140 | 0.31 | – | – |
| CCOC(=O)CNC(=O)C1NC(=O)C2NC(=O)C(NC(=O)C3NC(=O)C4NC(=O)C(Cc5ccc(c(Cl)c5)Oc5cc3cc(c5O)Oc3ccc(cc3Cl)C2OC2OC(CO)C(O)C(O)C2NC(C)=O)NC(=O)C(N)c2ccc(O)c(c2)Oc2cc(O)cc4c2)c2ccc(O)c(c2)-c2c(O)cc(O)cc21 (stereo not shown) [Compound 16] | 7.8 | 0.25 (≈ 0.168 µM) | 0.5 (≈ 0.336 µM) | > 128 | > 128 | 1 (≈ 0.672 µM) | 1 (≈ 0.672 µM) | 0.12 (≈ 0.0807 µM) | 128 (≈ 86.1 µM) | 1 (≈ 0.672 µM) | > 300 | 5 | – | – |
| NC1C(=O)NC2Cc3ccc(c(Cl)c3)Oc3cc4cc(c3O)Oc3ccc(cc3Cl)C(O)C3NC(=O)C(NC(=O)C4NC(=O)C(NC2=O)c2cc(O)cc(c2)Oc2cc1ccc2O)c1ccc(O)c(c1)-c1c(O)cc(O)cc1C(C(=O)NCCN1CCCC1)NC3=O (stereo not shown) [Compound 22] | 8.8 | 0.06 (≈ 0.0463 µM) | – | 64 (≈ 49.4 µM) | 64 (≈ 49.4 µM) | 0.12 (≈ 0.0927 µM) | 0.12 (≈ 0.0927 µM) | 0.016 (≈ 0.0124 µM) | 8 (≈ 6.18 µM) | 0.12 (≈ 0.0927 µM) | > 300 | 1.6 | 6.4 | 7.8 |
